{
  "source": "patent US11872237B2",
  "about": "“Pharmaceutical composition and preparation method thereof” (Ascentage Pharma (Suzhou) Co., Ltd., priority 2019, dated 2024)",
  "key": {"[1]": {"experiment": "Effect of pH value on the solubility of Compound 1 (solution appearance)", "type": "physicochemical", "procedure": "(§1) Experimental method: Referring to the process of preparation of solution in Preparation Example 1, the preparation was carried out in an amount of 10 vials, and the solutions with different pH values were prepared according to the following formulations (contents in each vial), and the properties of the prepared solutions were observed.\nThe thicker of the milky white, the worse of the solubility."}, "[2]": {"experiment": "Solubility of Compound 1 in different co-solvents (excess compound, HPLC analysis)", "type": "physicochemical", "conditions": "organic solvent or mixture, thermodynamic from solid, about half an hour", "text": "2. The effects of different co-solvents on the solubility of Compound 1 were observed. The specific results are as follows.\nExperimental method: Compound 1 was taken in excess amount, suspended in various solvents, sampled and filtered after about half an hour, and analyzed by HPLC analysis."}, "[3]": {"experiment": "Effect of surfactant on solubility and clarity of Compound 1 (appearance observation)", "type": "physicochemical", "conditions": "PEG400, ethanol, mannitol", "procedure": "3. The effects of the Polyoxyl 35 Castor Oil ester used by the present invention as surfactant on the solubility and clarity of the compound 1 were further tested. The specific results are as follows.\nas §1, with “vial) for appearance observation.” for “vial), and the properties of the prepared solutions were observed.”\nIn addition, the effect of Tween80 as surfactant of the present invention on the solubility and clarity of compound 1 was tested. Specific results are as follows.\nExperimental Method: referring to the process of preparation of solution in Preparation Example 1, the solution was prepared according to the formulation in the Table below for appearance observation.\nSimilarly, the effect of Solutol HS-15 as surfactant of the present invention on the solubility and clarity of compound 1 was tested. Specific results are as follows."}, "[4]": {"experiment": "General statements on solubility and stability of Compound 1 versus pH", "type": "physicochemical"}, "cancer cells": {"system": "cancer cells", "conditions": "see WO2014113413; cited from earlier work"}},
  "data": [
    {"smiles": "Cc1c(S(C)(=O)=O)c(-c2cc(F)cc(N3CCN(c4ccc(NS(=O)(=O)c5ccc(N[C@H](CCN6CCC(C(=O)OCCCP(=O)(O)O)CC6)CSc6ccccc6)c(S(=O)(=O)C(F)(F)F)c5)cc4)CC3)c2)c(-c2ccc(Cl)cc2)n1C(C)C", "note": "[Compound 1, (3R)-1-(3-(4-(4-(4-(3-(2-(4-chlorophenyl)-1-isopropyl-4-methylsulfonyl-5-methyl-1H-pyrrol-3-yl)-5-fluorophenyl)piperazin-1-yl)-phenylaminosulfonyl)-2-trifluoromethylsulfonyl-anilino)-4-phenylthio-butyl)-piperidine-4-carboxylic acid 3-phosphonopropyl ester]", "values": [
      {"measurement": "solubility of Compound 1", "setting": "[1]; pH 7.888, Table 1 formulation", "result": "poor"},
      {"measurement": "solubility of Compound 1", "setting": "[1]; pH 8.528, Table 1 formulation", "result": "acceptable"},
      {"measurement": "solubility of Compound 1", "setting": "[1]; pH 9.016, Table 1 formulation", "result": "acceptable"},
      {"measurement": "solubility of Compound 1", "setting": "[1]; pH 9.326, Table 1 formulation", "result": "best solubility"},
      {"measurement": "solubility", "setting": "[2]; solvent Ethanol, 25° C.", "result": 850, "unit": "µg/mL"},
      {"measurement": "solubility", "setting": "[2]; solvent Glycerin, 25° C.", "result": 450, "unit": "µg/mL"},
      {"measurement": "solubility", "setting": "[2]; solvent PEG400, 25° C.", "result": 16800, "unit": "µg/mL"},
      {"measurement": "solubility", "setting": "[2]; solvent Propylene glycol, 25° C.", "result": 3100, "unit": "µg/mL"},
      {"measurement": "Solution appearance", "setting": "[3]; Table 3a: compound 1 10 mg/ml, Tween80 50 mg, pH 9.0", "result": "Transparent solution"},
      {"measurement": "Solution appearance", "setting": "[3]; Table 3b: compound 1 10 mg/ml, Solutol HS-15 240 mg, pH 8.7", "result": "Transparent solution"},
      {"measurement": "solubility", "setting": "[4]; acidic or near-neutral solutions", "result": "extremely poorly soluble"},
      {"measurement": "dissolution", "setting": "[4]; alkaline conditions", "result": "greatly improved"},
      {"measurement": "stability", "setting": "[4]; alkaline conditions", "result": "unstable"},
      {"measurement": "inducing apoptosis of cancer cells", "setting": "cancer cells", "result": "effective"}
    ]}
  ]
}
